In assay [1] the test system is E. Coli. Kind of assay: Minimum inhibitory concentration (MIC) against E. coli. In kind it is cell-based. The note with it: Escherichia coli. The method, then:
(§1) A minimum inhibitory concentration (MIC) of a MUM was determined and compared to that of the biocide glutaraldehyde. Specifically, the indicated compound or blend of compounds was used to treat a wildtype E. coli strain and the effect of this treatment on bacterial count used to determine the MIC.
(§2) However, the mixture of the glyoxal and glycolaldehyde (1,4 dioxane 2,5 diol) provided competitive performance to glutaraldehyde.

For assay [2], the system named is general wild strain bacteria. Put plainly: Minimum inhibitory concentration (MIC) against general wild strain bacteria. In kind it is cell-based. The protocol:
as §1, §2

The structures appear in SMILES notation. Values after ≈ are worked out from the molar mass of the structure shown. A value given as a limit tells only on which side of the number the result lay.

The term MIC denotes the lowest concentration that inhibits growth of the organism. Higher therefore signals a need for much substance. On to `OC1COC(O)CO1` (stereo not drawn) [39% 1,4 dioxane 2,5 diol, 1,4 dioxane 2,5 diol], for which the MIC in assay [1] was 1000 mg/L (≈ 8.33 mM); in assay [2] it was above 1000 mg/L.
As for `O=CC=O` [39% glyoxal, glyoxal], the MIC in assay [1] is 1000 mg/L (≈ 17.2 mM); in assay [2], above 1000 mg/L.
Taken in the same sequence, the figures for `O=CCCCC=O` [40% glutaraldehyde, glutaraldehyde] were 1000 mg/L (≈ 9.99 mM) and 1000 mg/L (≈ 9.99 mM).
